This is an account of results in patent US20030157704A1, “Reagents and methods for identifying and modulating expression of genes regulated by CDK inhibitors” (priority 2001, published 2003).

One experiment deals with NK4 promoter. The experiment can be described thus: Luciferase assay in LuNK4p21 cell line (NK4 promoter-luciferase, IPTG-inducible p21). Format: cell-based, human. Here is the method: This assay was performed as follows. Cells were plated at a density of 40,000 cells/well in 12 well plates in 1 mL of media containing penicillin/streptomycin, glutamine and 10% fetal calf serum (FCS). After attachment, cells were treated with 50 μM IPTG or left untreated for different periods of time. Luciferase activity was then measured as described in Example 8 above. An additional aliquot was removed from the cell lysate to measure protein concentration using the Bio-Rad protein assay kit (Bradford assay). Luciferase activity for each sample was normalized to protein content and expressed as luciferase activity/μg protein.
Luciferase assays were performed substantially as described in Example 9. Luciferase activity was measured after 16 hrs of incubation with or without 50 μM IPTG, followed by an additional 20 hr treatment in the presence or in the absence of 20 mM sodium salicylate, 1 mM sulindac, or 10 mM aspirin. […] NSAID concentrations were based on the pharmacologic concentrations of these agents in the serum of patients required for their anti-inflammatory properties (Yin et al., 1998, ibid.).

The next experiment has as its system p21-inducible genes. The experiment can be described thus: RT-PCR of endogenous p21-inducible genes in LuNK4p21 cells. In kind it is cell-based, human. Here is the method: To determine whether NFκB-inhibiting NSAID inhibited not only the induction of transcription from the NK4 promoter but also RNA expression of the endogenous p21-inducible genes, LuNK4p21 cells were plated at 125,000 cells per well in 6-well plates and were either untreated or treated with 50 μM IPTG for 48 hrs (the period of time required for maximal stimulation of p21-inducible genes; Chang et al., 2000, Proc. Natl. Acad. Sci. USA 97: 4291-4296), in the presence or in the absence of sulindac, at 250 μM, 500 μM or 1 mM concentrations. After this incubation, RNA was extracted from the cells using Qiagen RNeasy Mini Kit, and relative RNA levels of several p21-inducible genes were determined by reverse transcription-PCR (RT-PCR), essentially as described by Noonan et al. (1990, Proc. Natl. Acad. Sci. USA 87: 7160-7164), except that β-actin rather than β2-microglobulin was used for cDNA normalization. The PCR cycles were as follows: for the 1st cycle, 3 min for denaturation, 2 min for annealing and 2 min for extension, and the rest of cycles, 30 sec for denaturation; 30 sec for annealing; and 1 min for extension.

A further experiment has as its target CDK4 (UniProt P11802). The experiment can be described thus: cell-based or functional assay.
For the next experiment, the target named is CDK6 (UniProt Q00534). Briefly: cell-based or functional assay.
Setting [1] is: 25 μM NSAID for 20 hr after 16 hrs with 50 μM IPTG.

Chain of CDK4 (P11802 2-303 limits assumed): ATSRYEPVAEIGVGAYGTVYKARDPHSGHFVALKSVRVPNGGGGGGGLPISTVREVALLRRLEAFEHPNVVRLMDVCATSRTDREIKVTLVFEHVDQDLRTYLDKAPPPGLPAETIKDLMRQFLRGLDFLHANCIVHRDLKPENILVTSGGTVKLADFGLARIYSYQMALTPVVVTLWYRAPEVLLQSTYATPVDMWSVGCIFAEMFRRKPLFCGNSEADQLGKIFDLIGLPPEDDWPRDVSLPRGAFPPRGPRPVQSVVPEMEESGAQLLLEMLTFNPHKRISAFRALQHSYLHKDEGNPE
Chain of CDK6 (Q00534 whole entry): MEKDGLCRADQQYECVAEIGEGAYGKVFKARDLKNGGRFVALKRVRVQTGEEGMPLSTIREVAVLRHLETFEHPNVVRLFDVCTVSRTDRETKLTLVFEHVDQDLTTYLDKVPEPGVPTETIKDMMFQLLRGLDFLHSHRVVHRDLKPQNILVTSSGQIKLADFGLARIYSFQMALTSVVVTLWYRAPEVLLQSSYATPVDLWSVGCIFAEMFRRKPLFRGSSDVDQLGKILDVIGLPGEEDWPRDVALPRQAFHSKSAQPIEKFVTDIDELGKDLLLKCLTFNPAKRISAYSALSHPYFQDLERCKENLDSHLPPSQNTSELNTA

`CC(C)Cc1ccc(C(C)C(=O)O)cc1` (stereo not shown) [ibuprofen]: the “induction of luciferase expression by IPTG” value (“induction” for short) in the experiment on NK4 promoter (setting [1]) was “no significant difference”.
For the compound `CC(=O)Oc1ccccc1C(=O)O` [aspirin], the “induction” value in the experiment with NK4 promoter (10 mM aspirin for 20 hr after 16 hrs with 50 μM IPTG) is given as “completely or almost completely abolished”.
`COc1ccc2c(c1)c(CC(=O)O)c(C)n2C(=O)c1ccc(Cl)cc1` [indomethacin]: the “induction” value with NK4 promoter (setting [1]) is reported as “no significant difference”.
In the case of `CC1=C(CC(=O)O)c2cc(F)ccc2/C1=C\c1ccc([S+](C)[O-])cc1` (stereo not shown) [sulindac], the “induction” value in the experiment with NK4 promoter (1 mM sulindac for 20 hr after 16 hrs with 50 μM IPTG) was “completely or almost completely abolished”. In addition, the “effects of IPTG on APP gene RNA” value in the experiment on p21-inducible genes (250 and 500 μM sulindac) is listed as “diminished”. The “NK4 gene expression (RNA)” value in the experiment with p21-inducible genes (absence of IPTG, sulindac 250 μM, 500 μM or 1 mM, 48 hrs) was “very little effect”. The “gene expression of all the other tested genes” value in the experiment with p21-inducible genes (absence of IPTG, sulindac 250 μM-1 mM) was “dose-dependent increase”. Further, the “t-TGase RNA” value with p21-inducible genes (compared with NK4, with and without IPTG, sulindac 250 μM-1 mM) was “Very similar results”. In addition, the “p21-induced transcription of most of the tested genes” value in the experiment with p21-inducible genes (moderate dose of sulindac (250 μM)) was “inhibits the ability of p21 to induce transcription”. Further, in the experiment on p21-inducible genes (only by 250 μM sulindac), the “effects of IPTG on CTGF gene RNA” value was “diminished”, the “effects of IPTG on Mac2-binding protein (Mac2-BP) gene RNA” value is recorded as “diminished” and the “effects of IPTG on p66Shc gene RNA” value is listed as “diminished”. Further, the “NK4 RNA levels” value with p21-inducible genes (presence of 50 μM IPTG, all concentrations of sulindac (250 μM, 500 μM, 1 mM), 48 hrs) is given as “dose-dependent decrease”. In addition, the “gene expression of all the other tested genes” value in the experiment on p21-inducible genes (presence of IPTG, highest dose of sulindac (1 mM)) is “did not decrease gene expression”. In addition, in the experiment on p21-inducible genes (sulindac 250 μM, 500 μM, 1 mM), the “IPTG-induced RNA levels of prosaposin” value is reported as “None of the tested sulindac concentrations produced a significant decrease” and the “IPTG-induced RNA levels of superoxide dismutase 2 (SOD2)” value is recorded as “None of the tested sulindac concentrations produced a significant decrease”.
With p16^Ink4A (from UniProt P42771 1-156), the cells arrested in G1 after 24 hrs of IPTG treatment (FACS analysis of DNA content) with CDK4 and with CDK6 was 93% throughout.
As for `O=C([O-])c1ccccc1O.[Na+]` [sodium salicylate], the “induction” value in the experiment on NK4 promoter (20 mM sodium salicylate for 20 hr after 16 hrs with 50 μM IPTG) was “completely or almost completely abolished”.
